Measured values published in ChEMBL document CHEMBL5729128, “Phenyl and pyridinyl substituted imidazoles as modulators of RORγT” (2022).

Biological target: T1, Nuclear receptor ROR-gamma (Homo sapiens, UniProt P51449)
T1 sequence (P51449 whole entry): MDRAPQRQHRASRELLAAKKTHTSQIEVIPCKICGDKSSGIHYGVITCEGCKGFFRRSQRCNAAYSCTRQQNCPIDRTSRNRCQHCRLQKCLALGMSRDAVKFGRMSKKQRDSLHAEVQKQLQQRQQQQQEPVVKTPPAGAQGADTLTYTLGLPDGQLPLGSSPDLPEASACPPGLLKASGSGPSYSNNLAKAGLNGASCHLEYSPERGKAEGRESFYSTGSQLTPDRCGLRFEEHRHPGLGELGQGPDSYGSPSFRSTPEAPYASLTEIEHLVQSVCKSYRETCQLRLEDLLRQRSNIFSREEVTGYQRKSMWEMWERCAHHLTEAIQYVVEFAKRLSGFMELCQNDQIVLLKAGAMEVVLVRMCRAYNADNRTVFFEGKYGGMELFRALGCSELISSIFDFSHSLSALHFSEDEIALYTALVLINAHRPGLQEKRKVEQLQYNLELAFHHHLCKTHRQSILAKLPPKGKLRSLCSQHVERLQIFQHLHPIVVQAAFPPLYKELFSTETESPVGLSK
Experiment: Fluorescence Based Assay: ThermoFluor is a fluorescence based assay that estimates ligand binding affinities by measuring the effect of a ligand on protein thermal stability (Pantoliano, M. W., Petrella, E. C., Kwasnoski, J. D., Lobanov, V. S., Myslik, J., Graf, E., Carver, T., Asel, E., Springer, B. A., Lane, P., and Salemme, F. R. (2001) High-density miniaturized thermal shift assays as a general strategy for drug discovery. J Biomol Screen 6, 429-40, and Matulis, D., Kranz, J. K., Salemme, F. R., and Todd, M. J. (2005) Thermodynamic stability of carbonic anhydrase: measurements of binding affinity and stoichiometry using ThermoFluor. Biochemistry 44, 5258-66). This approach is applicable to a wide variety of systems, and rigorous in theoretical interpretation through quantitation of equilibrium binding constants (KD).

Row | Kd [nM] | Compound
1 | 23 | CCc1nc(C(=O)NC[C@]2(O)CC[C@@H](S(C)(=O)=O)CC2)c(C)n1-c1ncc(CC(C)(C)C(F)(F)F)cc1OC(F)F
2 | 87 | CCc1nc(C(=O)NC[C@]2(O)CC[C@@H](S(C)(=O)=O)CC2)c(Cl)n1-c1ncc(CCCC(F)(F)F)cc1OC(F)F
3 | 15 | CCc1nc(C(=O)NC[C@H]2CC[C@H](S(C)(=O)=O)CC2)c(Cl)n1-c1ncc(CCCC(F)(F)F)cc1OC(F)F
